Reference: patent US20260272879A1, “ANION-BINDING AROMATIC OLIGOAMIDE MACROCYCLES AND METHODS OF MAKING AND USING SAME” (The Research Foundation for The State University of New York, priority 2023, published 2026)

Key:
[1] = Halide transport, lucigenin assay; assay type: biochemical; conditions: POPC LUVs, inside 100 mM NaNO3 + 1 mM lucigenin, outside 100 mM NaX, pH 7.0
Text: Determination of halide transport with the lucigenin assay.

[2] = Carrier vs channel chloride transport with DPPC LUVs; assay type: biochemical; conditions: HPTS
Procedure: Differentiation of carrier vs channel chloride transport with DPPC LUVs. An aliquot (20 μL) DPPC LUVs (intravesicular components: 10 mM HEPES, 100 mM NaCl, pH 7.0) was added to 1.98 mL of a buffer comprised of 10 mM HEPES, 100 mM NaCl, pH 7, followed by incubating at 45° C. for 3 min. An aliquot (20 μL) of c5a (0.2 mM) in DMF was added to the LUVs, with the final concentration of c5a being […], and the solution was incubated for an additional 3 min at 45° C. LUVs with c5a were incubated either at 45° C. or 25° C. for 3 minutes.

[3] = 1H NMR titration, binding of chloride; conditions: DMSO-d6:CDCl3 (15:85, v/v), 25° C., NMR titration (protons a and b)
Procedure: ^1H NMR Titration methods. Titrations of 4c and 6c with anions as their tetra-n-butyl ammonium (TBA) salts were carried out by ^1H NMR (400 MHz on Bruker-400) at room temperature (298 K). 0.5 mL of receptor 4c (5.0 mM) or 6c (2.0 mM) were prepared in the rubber-cap NMR tubes. Aliquots of concentrated TBACl or TBAI solution (50 mM for the titration of 4c and 20 mM for the titration of 6c) containing the same amount of receptors were added into the receptor solution using 20 microliter pipette. An initial ^1H NMR spectrum was collected and additional spectra were obtained after each injection of TBACl or TBAI solution. All titration ^1H NMR spectra were stacked together and the chemical shifts of amide protons were then fitted to the proposed 1:1 binding model using BindFit v0.5 (http://app.supramolecular.org/bindfit/).
Anion binding with four amides, i.e., L1mer-L4mer, was studied in the mixed solvents of CD3CN/CDCl3 (1/9, v/v) by titrating an amide host with 0 to 5 equivalents of tetrabutylammonium (n-Bu4N^+) salt of the corresponding anion. The binding of chloride, bromide, iodide, and nitrate was examined with the four amides in CDCl3 containing 10% CD3CN. The titration data were collected by monitoring the changes in chemical shifts of the backbone amide protons and the inner aromatic protons with varying ratios of the anion guests. Job plots indicate that these linear oligoamides and their anion guests bind in a 1:1 stoichiometry.
The binding of anions by macrocycle 7c was examined in CH3CN/CHCl3 (6/4, v/v) and in DMSO by titrating with various equivalents of the salts of chloride, iodide. nitrate, and dihydrogen phosphate, with tetrabutylammonium (n-Bu4N^+) being the counterion ion. Following the changes in the chemical shifts of backbone amide protons and “inner” aromatic protons allowed the determination of binding constants.
^1H NMR titration methods. Titrations of c5a and c5b with anions as their tetra-n-butylammonium (TBA), tetra-ethylammonium (TEA) and tetra-methylammonium (TMA) salts were carried out by ^1H NMR (400 MHz) at 25° C. […]

CCCCCCCCOCC(C)(C)C(=O)Nc1ccc2cc1C(=O)Nc1ccc(NC(=O)C(C)(C)COCCCCCCCC)c(c1)C(=O)Nc1ccc(NC(=O)C(C)(C)COCCCCCCCC)c(c1)C(=O)Nc1ccc(NC(=O)C(C)(C)COCCCCCCCC)c(c1)C(=O)Nc1ccc(NC(=O)C(C)(C)COCCCCCCCC)c(c1)C(=O)N2 [c5a]
sequence of halide transport efficiency (reduction of lucigenin fluorescence) [1]: Cl^−>Br^−>I^−
chloride transport into DPPC LUVs ([2]; 25° C. (gel phase), c5a pre-incubated at 45° C.): completely prohibited
chloride transport into DPPC LUVs ([2]; 45° C. (fluid phase)): enhanced halide transport
Association constant Ka, 1:1 complex with Cl^− [3]: (4.31 ± 0.12) × 10^3 M^−1
